Experimental data as given in paper PMC9133015 (Nature Communications, 2022).
Where “and” joins values, the source holds several entries; their conditions need not be identical. Equal values may be shown once.

Experiments:
[1] = tested on: DU145 cells; experiment: Migration assay (transwell); type: cell-based, human; conditions: DU145 cells, dose-dependent
[2] = tested on: PC-3 cells; experiment: Migration assay (transwell); type: cell-based, human; conditions: for Cell migration (cell number): PC-3, replicates
[3] = tested on: PC-3 cells; experiment: Colony formation assay; type: cell-based, human; conditions: replicates
[4] = tested on: PC-3 xenograft; experiment: In vivo antitumor activity, PC-3 xenograft mouse model; parameters: species or system BALB/c nude mice; conditions: for body weight (Figure S10b): 100 mg/kg (block headed at r39); for tumor volume (Figure S10a): 100 mg/kg, in mm³ (unit assumed); for tumor weight (Figure S10c): individual mice
[5] = tested on: 22Rv1 cells; experiment: Invasion assay (transwell); type: cell-based, human; conditions: for Cell invasion (cell number): replicates
[6] = tested on: RWPE-1 cells; experiment: Anti-proliferation activity assay (CCK8, 72 h); type: cell-based; conditions: for Relative proliferation rate (%) mean / Relative proliferation rate (%) / optical density: RWPE1; for Relative proliferation rate (%) / optical density: replicates

CCN1CCN(C(=O)c2ccc(Nc3ncc(F)c(-c4ccc5nc(N(C)C)sc5c4)n3)nc2)CC1 [YK-2-69]
migration (in words) [1]: remarkably inhibited the migration and invasion | Cell migration (cell number) ([2]; 1 µM): 189 cell number and 176 cell number and 199 cell number | Cell migration (cell number) ([2]; 2 µM): 110 cell number and 105 cell number and 98 cell number | Cell migration (cell number) ([2]; 4 µM): 69 cell number and 65 cell number and 74 cell number | migration (in words) ([2]; PC-3 cells, dose-dependent): remarkably inhibited the migration and invasion | Colony formation (cell number) ([3]; 1 µM): 40 cell number and 45 cell number and 35 cell number | Colony formation (cell number) ([3]; 2 µM): 10 cell number and 12 cell number and 9 cell number | Colony formation (cell number) ([3]; 4 µM): 5 cell number and 6 cell number | body weight (Figure S10b) ([4]; day 1, individual mice): 19.2 (2×) and 18.5 and 18.7 and 18.4 and 18.1 and 19.9 and 20.5 | body weight (Figure S10b) ([4]; day 3, individual mice, in g (unit assumed)): 19.3 and 18.8 and 19.1 and 19.6 and 18.7 and 18.5 and 20.2 and 21 | body weight (Figure S10b) ([4]; day 5, individual mice, in g (unit assumed)): 19.6 and 19.3 and 19.5 and 20 and 19 and 18.8 and 20.4 and 21.3 | body weight (Figure S10b) ([4]; day 7, individual mice): 19.7 and 19.2 (2×) and 19.8 and 20.2 and 19.1 and 20.7 and 21.6 | body weight (Figure S10b) ([4]; day 9, individual mice): 19.9 and 19.6 (2×) and 20.3 and 20.4 and 19.2 and 21.1 and 22.1 | body weight (Figure S10b) ([4]; day 11, individual mice, in g (unit assumed)): 20.2 and 19.8 and 20.6 and 20.7 and 19.9 and 19.6 and 21.5 and 22.4 | body weight (Figure S10b) ([4]; day 13, individual mice, in g (unit assumed)): 20.7 and 20.1 and 20.9 and 21 and 20.2 and 19.9 and 22 and 22.7 | body weight (Figure S10b) ([4]; day 15, individual mice, in g (unit assumed)): 21.2 and 20.6 and 21.3 and 21.4 and 20.5 and 20.2 and 22.4 and 23.1 | body weight (Figure S10b) ([4]; day 17, individual mice): 21.5 (2×) and 20.9 and 21.7 and 20.7 and 20.5 and 22.6 and 23.4 | body weight (Figure S10b) ([4]; day 19, individual mice): 21.6 and 21.3 and 22.1 and 21.8 and 20.9 (2×) and 22.9 and 23.6 | body weight (Figure S10b) ([4]; day 21, individual mice, in g (unit assumed)): 21.9 and 21.7 and 22.5 and 22 and 21.1 and 20.9 and 23.3 and 24.1 | body weight (Figure S10b) ([4]; day 23, individual mice, in g (unit assumed)): 22.2 and 21.9 and 22.8 and 22.5 and 21.6 and 21.2 and 23.7 and 24.4 | body weight (Figure S10b) ([4]; day 25, individual mice, in g (unit assumed)): 22.4 and 22.2 and 23 and 22.9 | tumor volume (Figure S10a) ([4]; day 1, individual mice): 77.4864 and 92.5301 and 97.1283 and 101.268 and 98.0398 and 97.468 and 73.886 and 80.3144 | tumor volume (Figure S10a) ([4]; day 3, individual mice): 115.765 and 144.425 and 170.933 and 124.316 and 162.987 and 146.332 and 130.957 and 150.238 | tumor volume (Figure S10a) ([4]; day 5, individual mice): 154.192 and 209.47 and 269.793 and 167.67 and 219.907 and 205.492 and 169.178 and 227.654 | tumor volume (Figure S10a) ([4]; day 7, individual mice): 219.658 and 275.568 and 365.875 and 209.513 and 299.159 and 296.64 and 231.386 and 330.578 | tumor volume (Figure S10a) ([4]; day 9, individual mice): 329.162 and 379.473 and 478.428 and 304.962 and 429.596 and 486.382 and 340.579 and 484.285 | tumor volume (Figure S10a) ([4]; day 11, individual mice): 425.31 and 450.313 and 557.222 and 355.841 and 497.266 and 558.451 and 389.654 and 598.443 | tumor volume (Figure S10a) ([4]; day 13, individual mice): 470.277 and 505.24 and 614.643 and 398.947 and 552.456 and 554.825 and 438.407 and 647.336 | tumor volume (Figure S10a) ([4]; day 15, individual mice): 505.825 and 567.155 and 666.998 and 434.631 and 595.348 and 608.437 and 469.076 and 655.028 | tumor volume (Figure S10a) ([4]; day 17, individual mice): 566.789 and 632.783 and 710.893 and 478.638 and 663.313 and 687.885 and 541.191 and 725.155 | tumor volume (Figure S10a) ([4]; day 19, individual mice): 626.915 and 695.75 and 762.842 and 529.26 and 724.582 and 714.002 and 593.545 and 775.769 | tumor volume (Figure S10a) ([4]; day 21, individual mice): 664.022 and 757.202 and 792.305 and 567.096 and 783.549 and 751.035 and 675.845 and 837.844 | tumor volume (Figure S10a) ([4]; day 23, individual mice): 712.611 and 799.725 and 853.619 and 600.587 and 832.37 and 731.016 and 739.798 and 963.73 | tumor volume (Figure S10a) ([4]; day 25, individual mice): 761.381 and 859.669 and 897.54 and 641.932 | tumor weight (Figure S10c) ([4]; High dose, in g (unit assumed)): 0.61 and 0.52 and 0.5 and 0.55 and 0.62 and 0.53 and 0.74 and 0.7 | tumor weight (Figure S10c) ([4]; Low dose, in g (unit assumed)): 0.79 and 0.89 and 1.1 and 0.91 and 0.71 and 0.92 and 0.81 and 0.88 | tumor growth (in words) ([4]; PC-3 xenograft, 100 or 200 mg/kg orally every day): significantly inhibited tumor growth | tumor volume (in words) ([4]; PC-3 xenograft, high dose (200 mg/kg)): decrease tumor volume | Cell invasion (cell number) ([5]; 22Rv1, 0.5 μM): 990 cell number and 970 cell number and 1020 cell number | Cell invasion (cell number) ([5]; 22Rv1, 1 μM): 730 cell number and 680 cell number and 710 cell number | Cell invasion (cell number) ([5]; 22Rv1, 2 μM): 520 cell number and 490 cell number and 509 cell number | invasion (in words) ([5]; 22Rv1 cells, dose-dependent): remarkably inhibited the migration and invasion | Relative proliferation rate (%) mean ([6]; 0.078 uM): 1.172% | Relative proliferation rate (%) ([6]; 0.078 uM): 1.172% and 0.4794% and 1.866% | optical density ([6]; 0.078 uM): 1.096 and 1.038 and 1.052 | Relative proliferation rate (%) mean ([6]; 0.3125 uM): 5.563% | Relative proliferation rate (%) ([6]; 0.3125 uM): 5.591% and 3.3557% and 7.743% | optical density ([6]; 0.3125 uM): 1.047 and 1.008 and 0.989 | Relative proliferation rate (%) mean ([6]; 1.25 uM): 13.0424% | Relative proliferation rate (%) ([6]; 1.25 uM): 13.0748% and 7.862% and 18.1903% | optical density ([6]; 1.25 uM): 0.964 and 0.961 and 0.877 | Relative proliferation rate (%) mean ([6]; 5 uM): 20.9606% | Relative proliferation rate (%) ([6]; 5 uM): 21.0099% and 16.7785% and 25.0933% | optical density ([6]; 5 uM): 0.876 and 0.868 and 0.803 | Relative proliferation rate (%) mean ([6]; 20 uM): 54.7483% | Relative proliferation rate (%) ([6]; 20 uM): 54.734% and 48.1304% and 61.3806% | optical density ([6]; 20 uM): 0.502 and 0.541 and 0.414 | Relative proliferation rate (%) mean ([6]; 80 uM): 72.5701% | Relative proliferation rate (%) ([6]; 80 uM): 72.5879% and 64.5254% and 80.597% | optical density ([6]; 80 uM): 0.304 and 0.37 and 0.208 | inhibitory activity against proliferation (in words) ([6]; RWPE-1 cells): weak inhibitory activity
